Assays:
[1] = test system: Rattus norvegicus; assay: In vivo immunosuppressive effect of compound was determined on host versus graft reaction (HvGR) using popliteal lymph node gain assay in rat; type: functional; settings: read-out: ID50 (the source's name)
[2] = test system: Rattus norvegicus; assay: Decrease in number of T cells in peripheral blood after administration for 4 days in rat; type: functional; settings: T-cell, 96 h, read-out: ID50 (the source's name)

Compound | ED50 [1] | ED50 [2]
CCCCCCCOc1ccc(CCC(N)(CO)CCC)cc1 (stereo unspecified) | 3.1 mg/kg | 7.3 mg/kg
CCCCCCCOc1ccc(CCC(N)(CO)C(C)C)cc1 (stereo unspecified) | 2.7 mg/kg | 4.5 mg/kg
CCCCCCCOc1ccc(CC[C@](C)(N)CO)cc1 | > 1 mg/kg | > 1 mg/kg
CCCCCCCOc1ccc(CC[C@@](C)(N)CO)cc1 | 0.088 mg/kg | 0.0092 mg/kg
CCCCCCCOc1ccc(CCC(N)(CC)CO)cc1 (stereo unspecified) | 0.059 mg/kg | 0.044 mg/kg
CCCCCCCOc1ccc(CC[C@](N)(CO)CCC)cc1 | > 10 mg/kg | > 10 mg/kg
CCCCCCCCc1ccc(CCC(N)CO)cc1.Cl (stereo unspecified) | > 10 mg/kg | > 10 mg/kg
CCCCCCCOc1ccc(CCC(N)(CO)CO)cc1 | 0.049 mg/kg | 0.014 mg/kg
CCCCCCCOc1ccc(CCC(N)(CO)CCCC)cc1 (stereo unspecified) | > 10 mg/kg | > 10 mg/kg
CCCCCCCOc1ccc(CC[C@@](N)(CO)CCC)cc1 | 0.63 mg/kg | 4.4 mg/kg
CCCCCCCOc1ccc(CCC(C)(N)CO)cc1 (stereo unspecified) | 0.031 mg/kg | 0.061 mg/kg
C/C=C/C[C@@H](C)[C@@H](O)[C@H]1C(=O)N[C@@H](CC)C(=O)N(C)CC(=O)N(C)[C@@H](CC(C)C)C(=O)N[C@@H](C(C)C)C(=O)N(C)[C@@H](CC(C)C)C(=O)N[C@@H](C)C(=O)N[C@H](C)C(=O)N(C)[C@@H](CC(C)C)C(=O)N(C)[C@@H](CC(C)C)C(=O)N(C)[C@@H](C(C)C)C(=O)N1C [CYCLOSPORINE] | 2.8 mg/kg | > 30 mg/kg
CCCCCCCCc1ccc(CCC(N)(CO)CO)cc1.Cl [FINGOLIMOD HYDROCHLORIDE] | 0.2 mg/kg | 0.024 mg/kg

Reference: ChEMBL document CHEMBL1130968, “Synthesis and biological evaluation of 2,2-disubstituted 2-aminoethanols: analogues of FTY720” (1998)
